Data from US7098348B2, “Triptolide derivatives as immunomodulators and anticancer agents” (priority 2002, dated 2006).

Key:
[1] = test system: Jurkat human T lymphocyte cell line; assay: Annexin V apoptosis assay; type: cell-based; conditions: 24 hours, compound pre-incubated in human serum 48 hours, FIG. 1
Procedure: (§1) Pooled human serum was stored in aliquots at −80° C. Test compounds were added at 20 mM to thawed human serum in 1.5 ml microfuge tubes and incubated at 37° C. in a water bath for 48 hours. The test samples were placed on ice until dilution for the bioassay. Controls consisted of the compounds incubated in complete tissue culture medium (RPMI 1640 medium plus 5% heat-inactivated fetal calf serum, 1% HEPES, 1% pen/strep, 1% glutamine) rather than human serum.
Test samples (incubated in human serum as described in section A) were diluted to 1 mM in complete tissue culture medium. Aliquots were placed in microculture plates and serial dilutions were prepared so that the final concentration would encompass the range of 2 to 6,000 nM with half-log increments. […]
After 24 hours, the plates were centrifuged to pellet the cells, and the cells were washed twice with 2% heat-inactivated fetal calf serum in PBS. […] The contents of the wells were individually transferred into test tubes, and apoptosis was analyzed using a FACSCalibur flow cytometer (BD Immunocytometry Systems, San Jose, Calif.). Cells positive for Annexin V binding were considered to be apoptotic, and the data were calculated as percent apoptotic cells. […]

[2] = test system: IL-2 production by Jurkat cells; assay: IL-2 production assay; type: cell-based; conditions: Jurkat cells stimulated with anti-CD3 antibody and PMA, 24 hours; compound pre-incubated in human serum; FIG. 2
Procedure: as §1
Test samples, incubated in human serum as described in Example 2A, were diluted to 1 mM in complete tissue culture medium. Aliquots were placed in microculture plates that had been coated with anti-CD3 antibody (used to stimulate the production of IL-2 by Jurkat cells), and serial dilutions were prepared so that the final concentration would encompass the range of 0.001 to 10,000 nM in log increments. […] The stored supernatants were analyzed for human IL-2 concentration using the Luminex 100 (Luminex Corporation, Austin, Tex.), Luminex microspheres coupled with anti-IL-2 capture antibody, and fluorochrome-coupled anti-IL-2 detection antibody. The data were expressed as ng/ml of IL-2. […]

[3] = test system: HT-29 human colon cancer cell line; conditions: HT-29 tumor xenografts, U.S. Pat. No. 6,620,843, cited from earlier work

CC(C)[C@]12O[C@H]1[C@@H]1O[C@]13[C@]1(O[C@H]1C[C@H]1C4=C(CC[C@@]13C)C(=O)OC4)[C@]2(C)O [PG670, 14-C-methyltriptolide]
induction of apoptosis (percent apoptotic cells, Annexin V) [1]: dose-dependent induction of apoptosis | inhibition of IL-2 production [2]: inhibition of IL-2 production

CC(C)[C@]12O[C@H]1[C@@H]1O[C@]13[C@]1(O[C@H]1C[C@H]1C4=C(CC[C@@]13C)C(=O)OC4)[C@@H]2OC(=O)CCC(=O)O [triptolide 14-succinate]
tumor regression [3]: induced tumor regression | tumor growth inhibition ([3]; in comparison to 5-FU and CPT-11): strongly inhibited tumor growth
